Results on 24 compounds are retold here after patent US11524968B2, “Heterocyclic compound as a protein kinase inhibitor” (HK inno.N Corporation, priority 2017, dated 2022).

This assay concerns the target JAK1 (Homo sapiens (Human), UniProt P23458). Description: Analysis of JAK1 activity inhibition ability (ADP-Glo Kinase Assay). Format: biochemical. The settings on record: JAK1 enzyme, ADP-Glo luminescence, ATP 250 uM, IRS-itide substrate, 30° C. 40 minutes; read-out: IC50. As for the experimental part:
Test Example 1: Analysis of JAK1 Activity Inhibition Ability of Compound of Formula 1 (ADP-Glo™ Kinase Assay)
A JAK inhibition ability of a compound according to the present invention was identified as follows.
A control material and a test material were prepared for each concentration, in such a way that they were diluted by means of DMSO. At the same time, ATP (250 uM) and JAK substrate (JAK1, IRS-itide 40 ng/mL) were prepared, in such a way that they were diluted by means of kinase buffer (40 mM Tris-HCl pH 7.5, 20 mM MgCl2, 0.5 mg/mL BSA, 50 uM DTT).
A test drug for each concentration, substrate, ATP and JAK enzyme were mixed in an eppendorf tube, and reacted in a 30° C. incubator for 40 minutes.
ADP-Glo™ reagent contained in ADP-Glo™ Kinase Enzyme System (Promega, USA, V9571) was added into each eppendorf tube, and reacted in a 30° C. incubator for 40 minutes. A kinase detection reagent contained in ADP-Go™ Kinase Enzyme System was inserted into the eppendorf tube, then an integration time was set to 1 second by using Wallac Victor 2™, then luminescence was measured, and then JAKs phosphorylation inhibition ability of the test material was analyzed. The concentration of the compound, which causes 50% of the JAK enzyme activity inhibition in comparison With the control group, was determined as IC50 (nM) of an inhibitor, wherein the results thereof are shown in a following table 1.

Chain of JAK1 (P23458 whole entry): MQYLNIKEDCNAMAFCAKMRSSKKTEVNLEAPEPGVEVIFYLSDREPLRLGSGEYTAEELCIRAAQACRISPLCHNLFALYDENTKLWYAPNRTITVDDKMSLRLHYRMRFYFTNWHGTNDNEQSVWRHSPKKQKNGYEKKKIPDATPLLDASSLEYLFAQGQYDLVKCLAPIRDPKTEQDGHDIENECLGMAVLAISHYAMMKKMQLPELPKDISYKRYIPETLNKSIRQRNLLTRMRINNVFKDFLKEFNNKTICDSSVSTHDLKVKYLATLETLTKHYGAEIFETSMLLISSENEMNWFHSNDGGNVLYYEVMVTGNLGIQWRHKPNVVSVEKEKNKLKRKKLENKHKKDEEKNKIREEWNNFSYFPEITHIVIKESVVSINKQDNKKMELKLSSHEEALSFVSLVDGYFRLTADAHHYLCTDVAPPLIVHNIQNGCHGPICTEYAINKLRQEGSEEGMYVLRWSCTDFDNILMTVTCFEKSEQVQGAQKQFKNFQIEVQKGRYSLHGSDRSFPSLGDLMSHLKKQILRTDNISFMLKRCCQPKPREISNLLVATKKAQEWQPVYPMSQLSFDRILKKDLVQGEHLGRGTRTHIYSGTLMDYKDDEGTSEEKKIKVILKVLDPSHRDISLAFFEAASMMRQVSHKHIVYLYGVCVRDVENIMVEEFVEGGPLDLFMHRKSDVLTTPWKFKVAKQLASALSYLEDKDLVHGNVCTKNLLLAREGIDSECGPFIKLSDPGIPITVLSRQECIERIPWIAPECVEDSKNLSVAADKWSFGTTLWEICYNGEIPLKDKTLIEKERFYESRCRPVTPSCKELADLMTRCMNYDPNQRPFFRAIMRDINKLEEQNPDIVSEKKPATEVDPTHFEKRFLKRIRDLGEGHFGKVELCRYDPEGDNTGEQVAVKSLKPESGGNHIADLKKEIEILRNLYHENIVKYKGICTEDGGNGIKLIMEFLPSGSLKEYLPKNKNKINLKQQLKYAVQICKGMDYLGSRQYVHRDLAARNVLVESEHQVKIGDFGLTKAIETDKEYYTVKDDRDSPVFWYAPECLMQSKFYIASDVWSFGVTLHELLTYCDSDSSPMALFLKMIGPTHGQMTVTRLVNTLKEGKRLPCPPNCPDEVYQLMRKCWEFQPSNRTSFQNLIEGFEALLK

As a reminder, the IC50 is the concentration at which inhibition is half-maximal. In the case of `N#C[C@H]1CC1C(=O)N1CC=C(c2cc(NC(=O)C3CC3)nc3[nH]ccc23)CC1` (stereo in doubt) [Example 267, N-(4-(1-((1S,2S)-2-cyanocyclopropane-1-carbonyl)-1,2,3,6-tetrahydropyridin-4-yl)-1H-pyrrolo[2,3-b]pyridin-6-yl)cyclopropanecarboxamide], the IC50 is < 20 nM.
For `CC1CN(C(=O)CC#N)CC=C1c1cc(NC(=O)C2CC2)nc2[nH]ccc12` (stereo in doubt) [Example 305, (R)—N-(4-(1-(2-cyanoacetyl)-3-methyl-1,2,3,6-tetrahydropyridin-4-yl)-1H-pyrrolo[2,3-b]pyridin-6-yl)cyclopropanecarboxamide] the value was 20 to 200 nM; for `CCC1CC(c2cc(NC(=O)C3CC3)nc3[nH]ccc23)=CCN1C(=O)CC#N` (stereo in doubt) [Example 417, (R)—N-(4-(1-(2-cyanoacetyl)-2-ethyl-1,2,3,6-tetrahydropyridin-4-yl)-1H-pyrrolo[2,3-b]pyridin-6-yl)cyclopropanecarboxamide], < 20 nM; for `CCS(=O)(=O)Nc1ccc(-c2cc(NC(=O)C3CC3)nc3[nH]ccc23)cc1F` [Example 1, N-(4-(4-(ethylsulfonamido)-3-fluorophenyl)-1H-pyrrolo[2,3-b]pyridin-6-yl)cyclopropanecarboxamide], < 20 nM.
For `O=C(Nc1cc(-c2ccc(NS(=O)(=O)c3ccc(F)c(F)c3)cc2)c2cc[nH]c2n1)C1CC1` [Example 2, N-(4-(4-((3,4-difluorophenyl)sulfonamido)phenyl)-1H-pyrrolo[2,3-b]pyridin-6-yl)cyclopropanecarboxamide] the value was < 20 nM.
For `O=C(Nc1cc(-c2ccc(NS(=O)(=O)CCCF)cc2)c2cc[nH]c2n1)C1CC1` [Example 3, N-(4-(4-((3-fluoropropyl)sulfonamido)phenyl)-1H-pyrrolo[2,3-b]pyridin-6-yl)cyclopropanecarboxamide] the value was < 20 nM; for `CCS(=O)(=O)Nc1ccc(-c2cc(NC(=O)C3CC3)nc3[nH]ccc23)cc1` [Example 4, N-(4-(4-(ethylsulfonamido)phenyl)-1H-pyrrolo[2,3-b]pyridin-6-yl)cyclopropanecarboxamide], < 20 nM; for `CCCS(=O)(=O)Nc1ccc(-c2cc(NC(=O)C3CC3)nc3[nH]ccc23)cc1` [Example 5, N-(4-(4-(propylsulfonamido)phenyl)-1H-pyrrolo[2,3-b]pyridin-6-yl)cyclopropanecarboxamide], < 20 nM.
Take `CCCCS(=O)(=O)Nc1ccc(-c2cc(NC(=O)C3CC3)nc3[nH]ccc23)cc1` [Example 6, N-(4-(4-(butylsulfonamido)phenyl)-1H-pyrrolo[2,3-b]pyridin-6-yl)cyclopropanecarboxamide]: the IC50 is < 20 nM.
Take `O=C(Nc1cc(-c2ccc(NS(=O)(=O)C3CCCCC3)cc2)c2cc[nH]c2n1)C1CC1` [Example 7, N-(4-(4-(cyclohexanesulfonamido)phenyl)-1H-pyrrolo[2,3-b]pyridin-6-yl)cyclopropanecarboxamide]: the IC50 was < 20 nM.
For `O=C(Nc1cc(-c2ccc(NS(=O)(=O)CCF)cc2)c2cc[nH]c2n1)C1CC1` [Example 8, N-(4-(4-((2-fluoroethyl)sulfonamido)phenyl)-1H-pyrrolo[2,3-b]pyridin-6-yl)cyclopropanecarboxamide] the value was 20 to 200 nM; for `O=C(Nc1cc(-c2ccc(NS(=O)(=O)C3CCS(=O)(=O)CC3)cc2)c2cc[nH]c2n1)C1CC1` [Example 9, N-(4-(4-((1,1-dioxidotetrahydro-2H-thiopyran)-4-sulfonamido)phenyl)-1H-pyrrolo[2,3-b]pyridin-6-yl)cyclopropanecarboxamide], < 20 nM.
In the case of `O=C(Nc1cc(-c2ccc(NS(=O)(=O)C3CCS(=O)(=O)C3)cc2)c2cc[nH]c2n1)C1CC1` (stereo not drawn) [Example 10, N-(4-(4-((1,1-dioxidotetrahydrothiophene)-3-sulfonamido)phenyl)-1H-pyrrolo[2,3-b]pyridin-6-yl)cyclopropanecarboxamide], the IC50 is < 20 nM.
For `O=C(Nc1cc(-c2ccc(NS(=O)(=O)C3CS(=O)(=O)C3)cc2)c2cc[nH]c2n1)C1CC1` [Example 11, N-(4-(4-((1,1-dioxidothietane)-3-sulfonamido)phenyl)-1H-pyrrolo[2,3-b]pyridin-6-yl)cyclopropanecarboxamide] the value was < 20 nM; for `O=C(Nc1cc(-c2ccc(NS(=O)(=O)c3ccc(Cl)nc3)cc2)c2cc[nH]c2n1)C1CC1` [Example 12, N-(4-(4-((6-chloropyridine)-3-sulfonamido)phenyl)-1H-pyrrolo[2,3-b]pyridin-6-yl)cyclopropanecarboxamide], < 20 nM; for `O=C(Nc1cc(-c2ccc(NS(=O)(=O)c3ccc(F)cc3)cc2)c2cc[nH]c2n1)C1CC1` [Example 13, N-(4-(4-((4-fluorophenyl)sulfonamido)phenyl)-1H-pyrrolo[2,3-b]pyridin-6-yl)cyclopropanecarboxamide], < 20 nM.
Regarding `O=C(Nc1cc(-c2ccc(NS(=O)(=O)c3ccc(Cl)cc3)cc2)c2cc[nH]c2n1)C1CC1` [Example 14, N-(4-(4-((4-chlorophenyl)sulfonamido)phenyl)-1H-pyrrolo[2,3-b]pyridin-6-yl)cyclopropanecarboxamide], the IC50 was < 20 nM.
With `Cn1cncc1S(=O)(=O)Nc1ccc(-c2cc(NC(=O)C3CC3)nc3[nH]ccc23)cc1` [Example 15, N-(4-(4-((1-methyl-1H-imidazole)-5-sulfonamido)phenyl)-1H-pyrrolo[2,3-b]pyridin-6-yl)cyclopropanecarboxamide], the IC50 was 20 to 200 nM.
For `Cn1cc(S(=O)(=O)Nc2ccc(-c3cc(NC(=O)C4CC4)nc4[nH]ccc34)cc2)cn1` [Example 16, N-(4-(4-((1-methyl-1H-pyrazole)-4-sulfonamido)phenyl)-1H-pyrrolo[2,3-b]pyridin-6-yl)cyclopropanecarboxamide] the value was 20 to 200 nM; for `NC(=O)c1ccc(S(=O)(=O)Nc2ccc(-c3cc(NC(=O)C4CC4)nc4[nH]ccc34)cc2)cc1` [Example 17, 4-(N-(4-(6-(cyclopropanecarboxamido)-1H-pyrrolo[2,3-b]pyridin-4-yl)phenyl)sulfamoyl)benzamide], 20 to 200 nM; for `CC(=O)N1CCC(S(=O)(=O)Nc2ccc(-c3cc(NC(=O)C4CC4)nc4[nH]ccc34)cc2)CC1` [Example 18, N-(4-(4-((1-acetylpiperidine)-4-sulfonamido)phenyl)-1H-pyrrolo[2,3-b]pyridin-6-yl)cyclopropanecarboxamide], 20 to 200 nM.
For `CC(C)Oc1ccc(S(=O)(=O)Nc2ccc(-c3cc(NC(=O)C4CC4)nc4[nH]ccc34)cc2)cc1` [Example 19, N-(4-(4-((4-isopropoxyphenyl)sulfonamido)phenyl)-1H-pyrrolo[2,3-b]pyridin-6-yl)cyclopropanecarboxamide] the value was < 20 nM; for `O=C(Nc1cc(-c2ccc(NS(=O)(=O)c3ccc(Br)cc3)cc2)c2cc[nH]c2n1)C1CC1` [Example 20, N-(4-(4-((4-bromophenyl)sulfonamido)phenyl)-1H-pyrrolo[2,3-b]pyridin-6-yl)cyclopropanecarboxamide], 20 to 200 nM.
For `N#Cc1ccc(S(=O)(=O)Nc2ccc(-c3cc(NC(=O)C4CC4)nc4[nH]ccc34)cc2)cc1` [Example 21, N-(4-(4-((4-cyanophenyl)sulfonamido)phenyl)-1H-pyrrolo[2,3-b]pyridin-6-yl)cyclopropanecarboxamide] the value was 20 to 200 nM.
